{
  "source": "paper PMC8185074",
  "about": "“Anchor extension: a structure-guided approach to design cyclic peptides targeting enzyme active sites” (Nature Communications, 2021)",
  "key": {"HDAC2 [1]": {"molecular_target": "T1, HDAC2 (Homo sapiens, UniProt Q92769)", "T1 construct": "purchased Reaction Biology Corporation (assay run by the CRO)", "T1 sequence (Q92769 whole entry)": "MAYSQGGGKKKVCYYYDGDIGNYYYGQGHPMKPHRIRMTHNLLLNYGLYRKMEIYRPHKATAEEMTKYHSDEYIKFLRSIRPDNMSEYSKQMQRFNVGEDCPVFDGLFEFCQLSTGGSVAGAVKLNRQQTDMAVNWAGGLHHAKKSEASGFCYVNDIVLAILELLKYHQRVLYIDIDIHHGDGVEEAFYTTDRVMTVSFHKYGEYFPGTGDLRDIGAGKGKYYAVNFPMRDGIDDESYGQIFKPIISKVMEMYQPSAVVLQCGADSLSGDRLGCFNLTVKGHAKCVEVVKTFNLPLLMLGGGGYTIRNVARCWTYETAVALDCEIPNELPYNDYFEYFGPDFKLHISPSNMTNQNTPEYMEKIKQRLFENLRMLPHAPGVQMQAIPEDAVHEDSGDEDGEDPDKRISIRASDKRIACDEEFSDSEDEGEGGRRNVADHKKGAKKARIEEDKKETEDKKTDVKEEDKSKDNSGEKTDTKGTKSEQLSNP", "test": "Initial HDAC2 IC50 estimate (BPS Biosciences HDAC fluorogenic assay kit)", "format": "biochemical", "procedure": "Initial IC50 values were estimated using HDAC fluorogenic assay kits from BPS Biosciences (HDAC2, HDAC4, and HDAC6) following the protocol described in the kit. All the measures were performed in duplicates or triplicates. These measurements were done either on full range of concentrations (1:10 dilution from 1 µM to 100 pM) or on two concentrations only (20 nM and 200 nM) as an estimate of the range. […] Source Data are provided as a Source Data file."}, "HDAC2 [2]": {"molecular_target": "T1, HDAC2", "test": "HDAC2 inhibition, full IC50 measurement (Reaction Biology; fluorogenic p53 peptide RHKK(Ac)AMC)", "format": "biochemical", "procedure": "The assay was performed using 50 μM fluorogenic peptide from p53 residues 379-382 [RHKK(Ac)AMC] in a base reaction buffer of 50 mM Tris-HCl at pH 8.0, 137 mM NaCl, 2.7 mM KCl, 1 mM MgCl2, and freshly added 1 mg/ml BSA and 1% DMSO. Peptides were first dissolved in DMSO and then added to the reaction mixture with the enzyme using acoustic technique, enough to reach the desired concentration for that assay point. Peptide concentrations were calculated based on mass of lyophilized peptide and its molecular weight. The substrate was then added and incubated for 1 hour at 30 °C in a sealed container. After the incubation, developer was added to stop the reaction and develop color. Kinetic measurements were then performed for 20 min with Envision with 5 min intervals (Ex/Em = 360/460 nm). The endpoint after plateau was taken for IC50 measurement.\nIn cases where duplicate measures are used, average data is reported in the main text or Supplementary Tables."}, "[3]": {"conditions": "Supp. Table 4, rough estimates, for promising hits full measurements, read-out: HDAC2 activity (initial values for HDAC2 IC50)"}, "[4]": {"conditions": "Supplementary Dataset 2, read-out: HDAC2 activity (initial activity)"}, "[5]": {"conditions": "HDAC2 activity (initial activity), Supplementary Dataset 2"}},
  "note": "Read-outs that look alike come from different tables or passages of the source. Peptide text beside a SMILES is read from it.",
  "data": [
    {"smiles": "N=C(N)NCCC[C@@H]1NC(=O)[C@@H](CCCNC(=N)N)NC(=O)[C@H]2CCCN2C(=O)[C@@H](Cc2c[nH]cn2)NC(=O)[C@H](Cc2ccc(O)cc2)NC(=O)[C@H](CCCCCS)NC(=O)[C@H](CCc2ccccc2)NC(=O)[C@@H](CCCCN)NC(=O)[C@H](CC(=O)O)NC1=O", "note": "[des3.2.0, SHA-Tyr-dHis-dPro-dArg-Arg-Asp-dLys-C27] (HELM PEPTIDE1{D.[dK].[O=C([C@H](CCc1ccccc1)N[*:1])[*:2]].[O=C([C@H](CCCCCS)N[*:1])[*:2]].Y.[dH].[dP].[dR].R}$PEPTIDE1,PEPTIDE1,1:R1-9:R2$$$V2.0)", "values": [
      {"measurement": "IC50", "setting": "HDAC2 [1]; [3]", "result": 0.028, "unit": "µM"},
      {"measurement": "IC50", "setting": "HDAC2 [1]; [4]", "result": "> 0.01", "unit": "µM"},
      {"measurement": "2-Selectivity: fold potency for HDAC2 over HDAC6", "setting": "HDAC2 [2]", "result": 0.53, "unit": "fold"}
    ]},
    {"smiles": "N=C(N)NCCC[C@@H]1NC(=O)[C@@H](CCCNC(=N)N)NC(=O)[C@H]2CCCN2C(=O)[C@@H](Cc2c[nH]cn2)NC(=O)[C@H](Cc2ccc(O)cc2)NC(=O)[C@H](CCCCCS)NC(=O)[C@H](CCc2ccccc2)NC(=O)[C@H]2CCCN2C(=O)[C@H](CC(=O)O)NC1=O", "note": "[des3.2.1, SHA-Tyr-dHis-dPro-dArg-Arg-Asp-dPro-C27] (HELM PEPTIDE1{D.[dP].[O=C([C@H](CCc1ccccc1)N[*:1])[*:2]].[O=C([C@H](CCCCCS)N[*:1])[*:2]].Y.[dH].[dP].[dR].R}$PEPTIDE1,PEPTIDE1,1:R1-9:R2$$$V2.0)", "values": [
      {"measurement": "IC50", "setting": "HDAC2 [1]; HDAC2 activity (initial values for HDAC2 IC50), Supp. Table 4, rough estimates, for promising hits full measurements", "result": 0.066, "unit": "µM"},
      {"measurement": "2-Selectivity: fold potency for HDAC2 over HDAC6", "setting": "HDAC2 [2]", "result": 0.44, "unit": "fold"}
    ]},
    {"smiles": "N=C(N)NCCC[C@H]1NC(=O)[C@H]2CCCN2C(=O)[C@@H](Cc2c[nH]cn2)NC(=O)[C@H](Cc2ccc(O)cc2)NC(=O)[C@H](CCCCCS)NC(=O)[C@H](CCc2ccccc2)NC(=O)[C@@H](CCCCN)NC(=O)[C@H](CC(=O)O)NC(=O)[C@@H]2CCCN2C1=O", "note": "[des3.2.2, SHA-Tyr-dHis-dPro-dArg-Pro-Asp-dLys-C27] (HELM PEPTIDE1{D.[dK].[O=C([C@H](CCc1ccccc1)N[*:1])[*:2]].[O=C([C@H](CCCCCS)N[*:1])[*:2]].Y.[dH].[dP].[dR].P}$PEPTIDE1,PEPTIDE1,1:R1-9:R2$$$V2.0)", "values": [
      {"measurement": "IC50", "setting": "HDAC2 [1]; [4]", "result": 0.058, "unit": "µM"},
      {"measurement": "2-Selectivity: fold potency for HDAC2 over HDAC6", "setting": "HDAC2 [2]", "result": 0.41, "unit": "fold"}
    ]},
    {"smiles": "N=C(N)NCCC[C@H]1NC(=O)[C@H]2CCCN2C(=O)[C@@H](Cc2c[nH]cn2)NC(=O)[C@H](Cc2ccc(O)cc2)NC(=O)[C@H](CCCCCS)NC(=O)[C@H](CCc2ccccc2)NC(=O)[C@H]2CCCN2C(=O)[C@H](CC(=O)O)NC(=O)[C@@H]2CCCN2C1=O", "note": "[des3.2.3, SHA-Tyr-dHis-dPro-dArg-Pro-Asp-dPro-C27] (HELM PEPTIDE1{D.[dP].[O=C([C@H](CCc1ccccc1)N[*:1])[*:2]].[O=C([C@H](CCCCCS)N[*:1])[*:2]].Y.[dH].[dP].[dR].P}$PEPTIDE1,PEPTIDE1,1:R1-9:R2$$$V2.0)", "values": [
      {"measurement": "IC50", "setting": "HDAC2 [1]; [5]", "result": 0.092, "unit": "µM"},
      {"measurement": "2-Selectivity: fold potency for HDAC2 over HDAC6", "setting": "HDAC2 [2]", "result": 0.47, "unit": "fold"}
    ]},
    {"smiles": "N=C(N)NCCC[C@@H]1NC(=O)[C@@H](CCCNC(=N)N)NC(=O)[C@H]2CCCN2C(=O)[C@@H](CO)NC(=O)[C@H](Cc2ccc(O)cc2)NC(=O)[C@H](CCCCCS)NC(=O)[C@H](CCc2ccccc2)NC(=O)[C@@H](CCC(N)=O)NC(=O)[C@H](CC(=O)O)NC1=O", "note": "[des3.3.2, SHA-Tyr-dSer-dPro-dArg-Arg-Asp-dGln-C27] (HELM PEPTIDE1{D.[dQ].[O=C([C@H](CCc1ccccc1)N[*:1])[*:2]].[O=C([C@H](CCCCCS)N[*:1])[*:2]].Y.[dS].[dP].[dR].R}$PEPTIDE1,PEPTIDE1,1:R1-9:R2$$$V2.0)", "values": [
      {"measurement": "IC50", "setting": "HDAC2 [1]; [3]", "result": 0.057, "unit": "µM"},
      {"measurement": "IC50", "setting": "HDAC2 [1]; [4]", "result": 0.05, "unit": "µM"},
      {"measurement": "2-Selectivity: fold potency for HDAC2 over HDAC6", "setting": "HDAC2 [2]", "result": 3, "unit": "fold"}
    ]},
    {"smiles": "N=C(N)NCCC[C@@H]1NC(=O)[C@@H](CCCNC(=N)N)NC(=O)[C@H]2CCCN2C(=O)[C@@H](CC(N)=O)NC(=O)[C@H](Cc2ccc(O)cc2)NC(=O)[C@H](CCCCCS)NC(=O)[C@H](CCc2ccccc2)NC(=O)[C@@H](CCCCN)NC(=O)[C@H](CC(=O)O)NC1=O", "note": "[des3.4.0, SHA-Tyr-dAsn-dPro-dArg-Arg-Asp-dLys-C27] (HELM PEPTIDE1{D.[dK].[O=C([C@H](CCc1ccccc1)N[*:1])[*:2]].[O=C([C@H](CCCCCS)N[*:1])[*:2]].Y.[dN].[dP].[dR].R}$PEPTIDE1,PEPTIDE1,1:R1-9:R2$$$V2.0)", "values": [
      {"measurement": "IC50", "setting": "HDAC2 [1]; [5]", "result": "0.01 to 0.1", "unit": "µM"}
    ]},
    {"smiles": "C[C@H]1NC(=O)[C@H](CCCCCS)NC(=O)[C@H](CCN)NC(=O)[C@@H](CC(N)=O)NC(=O)[C@H](CO)NC(=O)[C@H](CC(=O)O)NC(=O)[C@@H](CC(=O)O)NC(=O)[C@@H]2CCCN2C(=O)[C@H](Cc2ccccc2)NC1=O", "note": "[des3.5.1, SHA-dAla-Phe-Pro-dAsp-Asp-Ser-dAsn-Dab] (HELM PEPTIDE1{D.S.[dN].[Dab].[O=C([C@H](CCCCCS)N[*:1])[*:2]].[dA].F.P.[dD]}$PEPTIDE1,PEPTIDE1,1:R1-9:R2$$$V2.0)", "values": [
      {"measurement": "IC50", "setting": "HDAC2 [1]; [5]", "result": "> 1", "unit": "µM"}
    ]},
    {"smiles": "C[C@H]1NC(=O)[C@@H](Cc2c[nH]cn2)NC(=O)[C@H](CCCCCS)NC(=O)[C@H](Cc2c[nH]c3ccccc23)NC(=O)[C@@H](CCCNC(=N)N)NC(=O)[C@@H]2CCCN2C(=O)[C@@H](CC(N)=O)NC(=O)[C@@H](CC(N)=O)NC(=O)[C@H](Cc2ccc(O)cc2)NC1=O", "note": "[des3.6.0, SHA-dHis-dAla-Tyr-dAsn-dAsn-Pro-dArg-Trp] (HELM PEPTIDE1{P.[dR].W.[O=C([C@H](CCCCCS)N[*:1])[*:2]].[dH].[dA].Y.[dN].[dN]}$PEPTIDE1,PEPTIDE1,1:R1-9:R2$$$V2.0)", "values": [
      {"measurement": "IC50", "setting": "HDAC2 [1]; [5]", "result": "> 1", "unit": "µM"}
    ]},
    {"smiles": "CCCC[C@@H]1NC(=O)[C@H](CCCCCS)NC(=O)[C@H](CCc2ccccc2)NC(=O)[C@H](C)NC(=O)[C@@H]2CCCN2C(=O)[C@@H](CC(=O)O)NC(=O)[C@@H](CO)NC(=O)[C@H](Cc2c[nH]c3ccccc23)NC(=O)[C@@H](CO)NC1=O", "note": "[des3.7.0, SHA-Nlu-dSer-Trp-dSer-dAsp-Pro-Ala-C27] (HELM PEPTIDE1{[O=C([C@H](CCCCCS)N[*:1])[*:2]].[Nle].[dS].W.[dS].[dD].P.A.[O=C([C@H](CCc1ccccc1)N[*:1])[*:2]]}$PEPTIDE1,PEPTIDE1,1:R1-9:R2$$$V2.0)", "values": [
      {"measurement": "IC50", "setting": "HDAC2 [1]; [4]", "result": "> 1", "unit": "µM"}
    ]},
    {"smiles": "CC(C)C[C@@H]1NC(=O)[C@@H](CCC(=O)O)NC(=O)[C@@H](CC(N)=O)NC(=O)[C@@H](Cc2c[nH]cn2)NC(=O)[C@H](CCCCCS)NC(=O)[C@H](Cc2ccc3ccccc3c2)NC(=O)[C@H](CCCNC(=N)N)NC(=O)[C@@H]2CCCN2C(=O)[C@@H](C)NC1=O", "note": "[des3.8.0, SHA-dHis-dAsn-dGlu-Leu-dAla-Pro-Arg-B74] (HELM PEPTIDE1{[O=C([C@H](Cc1ccc2ccccc2c1)N[*:1])[*:2]].[O=C([C@H](CCCCCS)N[*:1])[*:2]].[dH].[dN].[dE].L.[dA].P.R}$PEPTIDE1,PEPTIDE1,1:R1-9:R2$$$V2.0)", "values": [
      {"measurement": "IC50", "setting": "HDAC2 [1]; [5]", "result": "> 1", "unit": "µM"}
    ]},
    {"smiles": "C[C@@H]1NC(=O)[C@@H](CCCNC(=N)N)NC(=O)[C@H](CCCCCS)NC(=O)[C@H](CCc2ccccc2)NC(=O)[C@@H](CCCNC(=N)N)NC(=O)[C@@H](Cc2ccccc2)NC(=O)[C@@H](CCC(=O)O)NC(=O)[C@@H](CCCCN)NC(=O)[C@@H]2CCCN2C1=O", "note": "[des3.10.0, SHA-dArg-Ala-Pro-dLys-dGlu-dPhe-dArg-C27] (HELM PEPTIDE1{A.P.[dK].[dE].[dF].[dR].[O=C([C@H](CCc1ccccc1)N[*:1])[*:2]].[O=C([C@H](CCCCCS)N[*:1])[*:2]].[dR]}$PEPTIDE1,PEPTIDE1,1:R1-9:R2$$$V2.0)", "values": [
      {"measurement": "IC50", "setting": "HDAC2 [1]; [5]", "result": "0.01 to 0.1", "unit": "µM"}
    ]}
  ]
}
